Reference: patent US11841367B2, “TLR agonist-enhanced in vitro assay of cell mediated immune responsiveness” (Cellestis Limited, priority 2011, dated 2023)

Legend:
Assay type in all cases: cell-based, human
whole blood [1] = test: Background IFN-γ responses to R848 alone in QFT-Nil tubes (whole blood, ELISA); settings: for IFNγ concentration of the plasma, background response, Mean: QFT-Nil tube, 1 ml whole blood, 37° C., 16-24 hours
whole blood [2] = test: IFN-γ responses of whole blood in QFT-Nil tubes with EBV EBNA1 pepMix plus R848; settings: for IFNγ response to antigen+R848 minus background to R848 alone, Mean: 16-24 hours
whole blood [3] = test: IFN-γ responses of whole blood in QFT-CMV tubes plus R848; settings: for IFNγ response to antigen+R848 minus background to R848 alone, Mean: 16-24 hours
whole blood [4] = test: Clinical study: QFT-TB response with added R848 in TB patients, TB suspects and household contacts; settings: for effect on QFT-TB response: subjects positive to QFT-TB test alone

`CCOCc1nc2c(N)nc3ccccc3c2n1CC(C)(C)O` [R848] was tested, and the “background responses to R848 alone” value (whole blood [1]; 0.1 μg/ml R848, QFT-Nil tubes) was “significant background responses seen in many donors”, the “IFNγ concentration of the plasma, background response, Mean” value (“IFNγ concentration of the plasma” for short) (whole blood [1]; R848 0.01 μg/ml alone) was −0.009677 1 U/ml and the “IFNγ concentration of the plasma” value (whole blood [1]; R848 0.02 μg/ml alone) was 0.0100 1 U/ml. The “IFNγ concentration of the plasma” value (whole blood [1]; R848 0.025 μg/ml alone) was 0.0330 1 U/ml, the “IFNγ concentration of the plasma” value (whole blood [1]; R848 0.03 μg/ml alone) was 0.0925 1 U/ml and the “IFNγ concentration of the plasma” value (whole blood [1]; R848 0.04 μg/ml alone) was 0.5144 1 U/ml. For the same compound, the “IFNγ concentration of the plasma” value (whole blood [1]; R848 0.05 μg/ml alone) was 1.084 1 U/ml, the “IFNγ concentration of the plasma” value (whole blood [1]; R848 0.1 μg/ml alone) was 21.58 1 U/ml and the “background responses to R848 alone” value (whole blood [1]; below 0.05 μg/ml R848, QFT-Nil tubes) was “not significant”. The “boost in EBV responses” value (whole blood [2]; 0.05 μg/ml R848 added to EBV EBNA1 peptide pool) was “significant boost”, the “IFNγ response to antigen+R848 minus background to R848 alone, Mean” value (whole blood [2]; 0.5 μg/ml EBV EBNA 1 pepMix + 0.01 μg/ml R848, whole blood) was 2.857 IU/ml and the “IFNγ response to antigen+R848 minus background to R848 alone, Mean” value (whole blood [2]; 0.5 μg/ml EBV EBNA 1 pepMix + 0.05 μg/ml R848, whole blood) was 18.32 IU/ml. The “IFNγ response to antigen+R848 minus background to R848 alone, Mean” value (whole blood [2]; 0.5 μg/ml EBV EBNA 1 pepMix + 0.1 μg/ml R848, whole blood) was 29.57 IU/ml, the “responses to the antigen-R848 combined stimuli versus sum of separate responses” value (whole blood [2]; EBV and CMV antigens, whole blood) was “greater than that seen by adding together the responses to the antigen and R848 alone individually” and the “boost in responses in QFT-CMV tubes” value (whole blood [3]; 0.05 μg/ml R848 added) was “not as large as that seen for EBV”. The “boost in responses in QFT-CMV tubes” value (whole blood [3]; 0.1 μg/ml R848 added) was “much greater”, the “IFNγ response to antigen+R848 minus background to R848 alone, Mean” value (whole blood [3]; QFT-CMV tube + 0.05 μg/ml R848, whole blood) was 15.96 IU/ml and the “IFNγ response to antigen+R848 minus background to R848 alone, Mean” value (whole blood [3]; QFT-CMV tube + 0.1 μg/ml R848, whole blood) was 79.53 IU/ml. For the same compound, the “effect on QFT-TB response” value (whole blood [4]; R848 0.05 μg/ml, P<0.001) was “significantly enhanced”, the “effect on QFT-TB response” value (whole blood [4]; R848 0.1 μg/ml, P<0.0001) was “significantly enhanced” and the “patients negative with the current QFT-TB tube who became positive when R848 was added” value (whole blood [4]; both R848 concentrations tested, both patients TB suspects) was “Two”.
